Values quoted from earlier work, collected in patent US6391860B1, “Method for preparation and use of paste formed by controlled reaction of sucralfate with hydrochloric acid” (priority 1999, dated 2002).

aluminum hydroxide salt of sucrose octasulfate [Sucralfate]
solubility in most polar and non-polar solvents: insoluble
solubility in strong acid and strong alkali: soluble
